Drawing on patent US6235787A, “Hydrazine derivatives” (Hoffmann-La Roche Inc., priority 1997, dated 2001), this text covers IC50 for ten molecules.

Common to all, as to assay type: cell-based
Assay [1] has as its system TNF-α release (THP1 cells). The experiment in a line: Test A: Inhibition of TNF-α Release (LPS-stimulated THP1 cells, ELISA). The following applies: Homo sapiens, THP-1, LPS-induced TNF-α release, 3 hours, 37° C., read-out: Test A IC50 (nMol). As to the method: Test A: Inhibition of TNF-α Release
THP1 cells were cultivated in RPMI 1640 medium supplemented with antibiotics and 10% foetal calf serum, harvested by centrifugation and diluted to 5×10^5 cells/ml in the above medium supplemented with 20 mM HEPES buffer. Aliquots ([…]) of the cell suspension were plated out on 96 well culture plates and incubated for 0.5 hour at 37° C. prior to the addition of the test compounds. The latter were dissolved in dimethyl sulphoxide (DMSO) to a stock concentration of 1.2 mM which was diluted with phosphate buffered saline/10% DMSO solution to provide test compounds in final concentrations of 10^-9 to 10^-5 M, with each concentration being tested in duplicate. The cells were incubated with the test compounds for 0.5 hour at 37° C., LPS (bacterial lipopolysaccharide) was then added to a concentration of […] and incubation was continued for 3 hours at 37° C. in an atmosphere containing 5% CO2 and at 95% relative humidity. After centrifugation at 260 g for 10 minutes an aliquot of each supernatant was removed and the amount of TNF-a was estimated by ELISA (R & D Systems Europe Ltd., Abingdon, England). The concentration of test compound which brings about 50% inhibition of LPS-induced TNF-a release (IC50) was computed from the dose-response curve.

In assay [2] the test system is TGF-α release (Normal human epidermal keratinocytes). The experiment in a line: Test B: Inhibition of TGF-α Release (TPA-stimulated NHEK). The following applies: 24 hours, 37° C., read-out: Test B IC50 (nMol). As to the method:
Test B: Inhibition of TGF-α Release
This test is an adaptation of the method described by R. J. Coffrey, R. Derynk, J. N. Wilcox, T. S. Bringman, A. S. Goustin, H. L. Moses and M. R. Pittelkow, Nature, (1987), 328, 816-820. Normal human epidermal keratinocytes (NHEK) (neonatal and adult) were supplied by Clonetics Corporation, San Diego, Calif., USA and at the third passage were plated out on 96 well culture plates at 2×10^3 to 10^4 cells per well and grown in a humidified incubator having a 5% CO2 atmosphere at 37° C. for 5 days in serum-free keratocyte growth medium (KGM; Clonetics Corporation). Test compounds were dissolved in DMSO and then diluted 10 times in keratinocyte basal medium (KBM; Clonetics Corporation). Serial dilutions of the test compounds were made in 10% DMSO in KBM to provide concentrations 12 times higher than the final assay concentration. The test compound dilutions (or vehicle only as controls) were added to the cells and incubation was then carried out at 37° C. for 0.5 hour. TGF-a release was then stimulated by the addition of 10 ng/ml TPA (phorbol 12-myristate 13-acetate). […]

Assay [3] has as its system Normal human epidermal keratinocytes (NHEK). The experiment in a line: Test C: Inhibition of Keratinocyte Proliferation (3H-thymidine incorporation). The following applies: 3 days, read-out: Test C IC50 (nMol). Here is the method:
Test C: Inhibition of Keratinocyte Proliferation
This test is an adaptation the methods described by T. Karashima, H. Hachisuka and Y. Sasai, J. Dermatol. Sci., (1996), 12, 246-254 and A. Olaniran, B. S. Baker, J. J. Garioch, A. V. Powles and L. Fry, Arch. Dermatol. Res., (1995), 287, 231-236. Normal human epidermal keratinocytes (NHEK) (neonatal and adult) were plated out on 96 well culture plates at 2×10^3 cells per well. Following attachment of the cells to the plate by incubation for 24 hours in a humidified incubator having a 5% CO2 atmosphere at 37° C. in serum-free KGM (see above), the medium was replaced with KBM (see above) for 4 days in order to arrest the growth of the cells. Test compounds were dissolved in DMSO and then diluted 10 times in KBM. Serial dilutions of the test compounds were made in 10% DMSO in KBM to provide concentrations 11 times higher than the final assay concentration. The cells were then returned to KGM and the test compound dilutions (or vehicle only for controls) were added immediately. After incubation for 3 days the cells were pulsed with […] ^3 H-thymidine, specific activity 5 Ci/mmol (Amersham International plc, Little Chalfont, Buckinghamshire, UK), for the last 16 hours. Cells were then detached using trypsin-EDTA and harvested. ^3 H-Thymidine incorporation as a measure of proliferation was determined by scintillation counting techniques. […]
In general terms: Dividing cells build labelled thymidine or BrdU into new DNA.

For orientation: IC50 means the concentration needed to halve the response being measured. Take `COc1ccc(N(NC(=O)[C@H](CC(C)C)[C@H](C/C=C/c2ccccc2)C(=O)NO)S(C)(=O)=O)cc1` [Compound B, 1(E)-2(R)-[1(S)-(Hydroxycarbamoyl)-4-phenyl-3-butenyl]-2'-(methanesulphonyl)-2'-(4-methoxyphenyl)-4-methylvalerohydrazide]: the IC50 in assay [1] is 515 nM; in assay [2] it was 255 nM; in assay [3], 1100 nM.

Consider `CC(C)C[C@@H](C(=O)NN(Cc1ccccc1)S(C)(=O)=O)[C@H](C/C=C/c1ccccc1)C(=O)NO` [C, (E)-2'-Benzyl-2(R)-[1(S)-(hydroxycarbamoyl)-4-phenyl-3-butenyl]-2'-(methanesulphonyl)-4-methylvalerohydrazide], for which the IC50 in assay [1] came to 365 nM.

Take `CC[C@H](C)CN(NC(=O)[C@H](CC(C)C)[C@H](C/C=C/c1ccccc1)C(=O)NO)S(C)(=O)=O` [G, (E)-2(R)-[1(S)-(hydroxycarbamoyl)-4-phenyl-3-butenyl]-2'-(methanesulphonyl)-4-methyl-2'-[2(S)-methylbutyl]valerohydrazide]: the IC50 in assay [1] worked out at 428 nM.

On to `CC(C)C[C@@H](C(=O)NN(CC(C)C)S(C)(=O)=O)[C@H](C/C=C/c1ccccc1)C(=O)NO` [E, (E)-2(R)-[1(S)-(Hydroxycarbamoyl)-4-phenyl-3-butenyl]-2'-isobutyl-2'-(methanesulphonyl)-4-methylvalerohydrazide], for which the IC50 in assay [1] is 531 nM.

As to `CC(C)C[C@@H](C(=O)NN(CC1CCCCC1)S(C)(=O)=O)[C@H](C/C=C/c1ccccc1)C(=O)NO` [D, (E)-2'-(Cyclohexylmethyl)-2(R)-[1(S)-(hydroxycarbamoyl)-4-phenyl-3-butenyl]-2'-(methanesulphonyl)-4-methylvalerohydrazide], the IC50 in assay [1] is 408 nM.

For `COC(=O)N(CC(C)C)NC(=O)[C@H](CC(C)C)[C@H](C/C=C/c1ccccc1)C(=O)NO` [Compound I, Methyl (E)-3-[2(R)-[1(S)-(hydroxycarbamoyl)-4-phenyl-3-butenyl]-4-methylvaleryl]-2-isobutylcarbazate], the IC50 in assay [1] stood at 881 nM.

For the molecule `CC(C)C[C@@H](C(=O)NN(c1ccccc1)S(C)(=O)=O)[C@H](C/C=C/c1ccccc1)C(=O)NO` [Compound A, (E)-2(R)-[1(S)-(Hydroxycarbamoyl)-4-phenyl-3-butenyl]-2'-(methanesulphonyl)-4-methyl-2'-phenylvalerohydrazide], the results for the IC50 in assay [1], in assay [2] and in assay [3] were 437 nM, 210 nM and 1300 nM, respectively.

In the case of `CC(C)C[C@@H](C(=O)NN1C(=O)CCCC1=O)[C@H](C/C=C/c1ccccc1)C(=O)NO` [F, (E)-2(R)-[(1S)-(Hydroxycarbamoyl)-4-phenyl-3-butenyl]-4-methyl-N-(2,6-dioxopiperidino)valeramide], the IC50 in assay [1] is 1520 nM.

On to `CC(C)CC(=O)N(CC(C)C)NC(=O)[C@H](CC(C)C)[C@H](C/C=C/c1ccccc1)C(=O)NO` [J, (E)-2(R)-[(S)-(Hydroxycarbamoyl)-4-phenyl-3-butenyl]-2'-(isobutyl)-2'-(isopentanoyl)-4-methylvalerohydrazide], for which the IC50 in assay [1] stood at 933 nM.

On to `C=C(C)CN(NC(=O)[C@H](CC(C)C)[C@H](C/C=C/c1ccccc1)C(=O)NO)S(C)(=O)=O` [H], for which, in assay [1], the IC50 came to 381 nM.
